Results reported in article PMC10842878 (Peptides, 2023).
Entries after “also recorded” stand apart in the source; their conditions may differ.

Legend:
[1] = H2O; cited from earlier work
[2] = type: physicochemical; details: 150 μM peptide, 50 mM sodium phosphate buffer pH 7, 37°C, 2 weeks

C/C1=C2/[N-]C([C@H](CC(N)=O)[C@@]2(C)CCC(=O)NCC(C)O)[C@]2(C)N=C(/C(C)=C3N=C(/C=C4N=C1[C@@H](CCC(N)=O)C\4(C)C)[C@@H](CCC(N)=O)[C@]\3(C)CC(N)=O)[C@@H](CCC(N)=O)[C@]2(C)CC(N)=O.[C-]#N.[C-]#N.[Co] (some centres unmarked) [Cbi, dicyanocobinamide]
Water solubility [1]: 400 mg/mL

HSQGTFTSDYSKYLDSrRAQDFVQWLMNTZ [compound 7]
Chemical stability (% of original concentration retained in solution) [2]: highest chemical stability; also recorded: highest % concentration retained
